Laboratory results from ChEMBL document CHEMBL3045426, “Synthesis, Antiviral and Antibacterial Activities of Isatin Mannich Bases” (Med Chem Res, 2005).
≈ marks a conversion by molar mass, not a printed value.

How the values were obtained:
Vibrio cholerae [1] = experiment: Antimicrobial activity against Vibrio cholerae 01 after 18 to 20 hr by agar dilution method; assay type: functional; settings: 1
Priestia megaterium = experiment: Antimicrobial activity against Bacillus megaterium after 18 to 20 hr by agar dilution method; assay type: functional
Enterobacter = experiment: Antimicrobial activity against Enterobacter after 18 to 20 hr by agar dilution method; assay type: functional
Citrobacter freundii = experiment: Antimicrobial activity against Citrobacter freundii after 18 to 20 hr by agar dilution method; assay type: functional
Salmonella enteritidis = experiment: Antimicrobial activity against Salmonella enterica subsp. enterica serovar Enteritidis after 18 to 20 hr by agar dilution method; assay type: functional
Salmonella typhimurium = experiment: Antimicrobial activity against Salmonella enterica subsp. enterica serovar Typhimurium after 18 to 20 hr by agar dilution method; assay type: functional
Proteus mirabilis = experiment: Antimicrobial activity against Proteus mirabilis after 18 to 20 hr by agar dilution method; assay type: functional
Proteus vulgaris = experiment: Antimicrobial activity against Proteus vulgaris after 18 to 20 hr by agar dilution method; assay type: functional
Edwardsiella tarda = experiment: Antimicrobial activity against Edwardsiella tarda after 18 to 20 hr by agar dilution method; assay type: functional
Escherichia coli = experiment: Antimicrobial activity against Escherichia coli NCTC 10418 after 18 to 20 hr by agar dilution method; assay type: functional
Salmonella typhi = experiment: Antimicrobial activity against Salmonella enterica subsp. enterica serovar Typhi after 18 to 20 hr by agar dilution method; assay type: functional
Salmonella paratyphi = experiment: Antimicrobial activity against Salmonella enterica subsp. enterica serovar Paratyphi A after 18 to 20 hr by agar dilution method; assay type: functional
Vibrio parahaemolyticus = experiment: Antimicrobial activity against Vibrio parahaemolyticus after 18 to 20 hr by agar dilution method; assay type: functional
Vibrio cholerae [2] = experiment: Antimicrobial activity against Vibrio cholerae 0139 after 18 to 20 hr by agar dilution method; assay type: functional; settings: 139
Vibrio fluvialis = experiment: Antimicrobial activity against Vibrio fluvialis after 18 to 20 hr by agar dilution method; assay type: functional
Vibrio mimicus = experiment: Antimicrobial activity against Vibrio mimicus after 18 to 20 hr by agar dilution method; assay type: functional
Pseudomonas aeruginosa = experiment: Antimicrobial activity against Pseudomonas aeruginosa after 18 to 20 hr by agar dilution method; assay type: functional
Staphylococcus aureus = experiment: Antimicrobial activity against Staphylococcus aureus after 18 to 20 hr by agar dilution method; assay type: functional
Morganella morganii = experiment: Antimicrobial activity against Morganella morganii after 18 to 20 hr by agar dilution method; assay type: functional
Shigella boydii = experiment: Antimicrobial activity against Shigella boydii after 18 to 20 hr by agar dilution method; assay type: functional
Plesiomonas = experiment: Antimicrobial activity against Plesiomonas after 18 to 20 hr by agar dilution method; assay type: functional
Shigella sonnei = experiment: Antimicrobial activity against Shigella sonnei after 18 to 20 hr by agar dilution method; assay type: functional
Klebsiella pneumoniae [3] = experiment: Antimicrobial activity against Klebsiella pneumoniae after 18 to 20 hr by agar dilution method; assay type: functional
Klebsiella pneumoniae [4] = experiment: Antimicrobial activity against Klebsiella pneumoniae subsp. ozaenae after 18 to 20 hr by agar dilution method; assay type: functional
[5] = test system: Mycobacterium tuberculosis; experiment: Antimycobacterial activity against Mycobacterium tuberculosis H37Rv ATCC 27294 at 6.25 ug/ml by MABA; assay type: functional
[6] = Cytotoxicity against Homo sapiens (human) HuH7 cells assessed as cell growth at 50 ug/ml after 3 days by Neutral red assay; assay type: cell-based, Huh-7; settings: read-out: Activity
[7] = Cytotoxicity against Homo sapiens (human) CEM cells after 5 days by MTT assay; assay type: cell-based; settings: CEM cells (CCRF-CEM)
[8] = test system: Human immunodeficiency virus 1; experiment: Antiviral activity against Human immunodeficiency virus 1 IIIB infected CEM cells assessed as protection against viral infection after 6 days by XTT assay; assay type: functional, CCRF-CEM; design: concentration or dose not given beside the values
[9] = test system: Human immunodeficiency virus 1; experiment: Antiviral activity against Human immunodeficiency virus 1 IIIB infected CEM cells assessed as inhibition of virus-induced cytopathicity after 6 days by XTT assay; assay type: functional, organism-based; settings: CCRF-CEM, 144 h
[10] = Cytotoxicity against Homo sapiens (human) MT4 cells after 5 days by MTT assay; assay type: cell-based
[11] = test system: Human immunodeficiency virus 1; experiment: Antiviral activity against Human immunodeficiency virus 1 IIIB infected MT4 cells assessed as inhibition of virus-induced cytopathicity after 5 days by MTT assay; assay type: functional, organism-based; settings: MT4, 120 h
Hepatitis C virus = experiment: Antiviral activity against Hepatitis C virus BM4-5 infected in Huh7 cells assessed as inhibition of viral RNA replication by phosphor screening method; assay type: functional, Hepacivirus hominis, Huh-7
[12] = test system: Human immunodeficiency virus 1; experiment: Antiviral activity against Human immunodeficiency virus 1 IIIB infected MT4 cells assessed as protection against viral infection after 5 days by MTT assay; assay type: functional; design: concentration or dose not given beside the values

`COc1cc(Cc2cnc(/N=C3\C(=O)N(CN4CCN(c5ccccn5)CC4)c4ccc(Cl)cc43)nc2N)cc(OC)c1OC` gave an MIC (Vibrio cholerae [1]) of 9.76 µg/mL (≈ 15.5 µM), an MIC (Priestia megaterium) of 1250 µg/mL (≈ 1990 µM) and an MIC (Enterobacter) of 1250 µg/mL (≈ 1990 µM). The MIC (Citrobacter freundii) was 625 µg/mL (≈ 993 µM), the MIC (Salmonella enteritidis) was 1250 µg/mL (≈ 1990 µM) and the MIC (Salmonella typhimurium) was 1250 µg/mL (≈ 1990 µM). It also gave an MIC (Proteus mirabilis) of 1250 µg/mL (≈ 1990 µM), an MIC (Proteus vulgaris) of 625 µg/mL (≈ 993 µM) and an MIC (Edwardsiella tarda) of 1250 µg/mL (≈ 1990 µM). For the same molecule, the MIC (Escherichia coli) was 1250 µg/mL (≈ 1990 µM), the MIC (Salmonella typhi) was 1250 µg/mL (≈ 1990 µM) and the MIC (Salmonella paratyphi) was 312 µg/mL (≈ 497 µM). For the same molecule, the MIC (Vibrio parahaemolyticus) was 1.22 µg/mL (≈ 1.94 µM), the MIC (Vibrio cholerae [2]) was 312 µg/mL (≈ 497 µM) and the MIC (Vibrio fluvialis) was 1250 µg/mL (≈ 1990 µM). The MIC (Vibrio mimicus) was 1.22 µg/mL (≈ 1.94 µM), the MIC (Pseudomonas aeruginosa) was 1250 µg/mL (≈ 1990 µM) and the MIC (Staphylococcus aureus) was 1250 µg/mL (≈ 1990 µM). The MIC (Morganella morganii) was 312 µg/mL (≈ 497 µM), the MIC (Shigella boydii) was 2.44 µg/mL (≈ 3.88 µM) and the MIC (Plesiomonas) was 9.76 µg/mL (≈ 15.5 µM). For the same molecule, the MIC (Shigella sonnei) was 1250 µg/mL (≈ 1990 µM), the MIC (Klebsiella pneumoniae [3]) was 1250 µg/mL (≈ 1990 µM) and the MIC (Klebsiella pneumoniae [4]) was 625 µg/mL (≈ 993 µM). The inhibition at 6.25 µg/mL [5] was 23%, the viability at 72 h, 50 ug/ml [6] was 101% and the CC50 at 120 h [7] was 29.4 µg/mL (≈ 46.7 µM). The Activity [8] was 23.55%, the EC50 [9] was greater than 29.4 µg/mL and the CC50 at 120 h [10] was 39.2 µg/mL (≈ 62.3 µM). For the same molecule, the EC50 [11] was greater than 39.2 µg/mL, the “inhibition (INH)” value (Hepatitis C virus) was 89% and the Activity [12] was 16.6%.
Work on `COc1cc(Cc2cnc(/N=C3\C(=O)N(CN4CCC(C)CC4)c4ccc(Cl)cc43)nc2N)cc(OC)c1OC` yielded an MIC (Vibrio cholerae [1]) of 4.88 µg/mL (≈ 8.64 µM), an MIC (Priestia megaterium) of 625 µg/mL (≈ 1110 µM) and an MIC (Enterobacter) of 1250 µg/mL (≈ 2210 µM). It also gave an MIC (Citrobacter freundii) of 312 µg/mL (≈ 553 µM), an MIC (Salmonella enteritidis) of 1250 µg/mL (≈ 2210 µM) and an MIC (Salmonella typhimurium) of 1250 µg/mL (≈ 2210 µM). The MIC (Proteus mirabilis) was 1250 µg/mL (≈ 2210 µM), the MIC (Proteus vulgaris) was 1250 µg/mL (≈ 2210 µM) and the MIC (Edwardsiella tarda) was 1250 µg/mL (≈ 2210 µM). It also gave an MIC (Escherichia coli) of 1250 µg/mL (≈ 2210 µM), an MIC (Salmonella typhi) of 1250 µg/mL (≈ 2210 µM) and an MIC (Salmonella paratyphi) of 312 µg/mL (≈ 553 µM). The MIC (Vibrio parahaemolyticus) was 2.44 µg/mL (≈ 4.32 µM), the MIC (Vibrio cholerae [2]) was 1250 µg/mL (≈ 2210 µM) and the MIC (Vibrio fluvialis) was 1250 µg/mL (≈ 2210 µM). For the same molecule, the MIC (Vibrio mimicus) was 1.22 µg/mL (≈ 2.16 µM), the MIC (Pseudomonas aeruginosa) was 1250 µg/mL (≈ 2210 µM) and the MIC (Staphylococcus aureus) was 1250 µg/mL (≈ 2210 µM). The MIC (Morganella morganii) was 1250 µg/mL (≈ 2210 µM), the MIC (Shigella boydii) was 4.88 µg/mL (≈ 8.64 µM) and the MIC (Plesiomonas) was 39.1 µg/mL (≈ 69.1 µM). The MIC (Shigella sonnei) was 1250 µg/mL (≈ 2210 µM), the MIC (Klebsiella pneumoniae [3]) was 1250 µg/mL (≈ 2210 µM) and the MIC (Klebsiella pneumoniae [4]) was 625 µg/mL (≈ 1110 µM). The inhibition at 6.25 µg/mL [5] was 15%, the viability at 72 h, 50 ug/ml [6] was 108% and the CC50 at 120 h [7] was 46.3 µg/mL (≈ 81.9 µM). It also gave an Activity [8] of 22.07%, an EC50 [9] greater than 46.3 µg/mL and a CC50 at 120 h [10] of 67.4 µg/mL (≈ 119 µM). For the same molecule, the EC50 [11] was greater than 67.4 µg/mL, the “inhibition (INH)” value (Hepatitis C virus) was 81% and the Activity [12] was 41.7%.
